The source of these data is paper PMC11407783 (Nature cell biology, 2023).

The target of this assay is KDM3B (Homo sapiens, UniProt Q7LBC6). Kind of assay: competitive inhibition of purified recombinant KDM3B. It counts as biochemical.
Sequence of KDM3B (Q7LBC6 whole entry): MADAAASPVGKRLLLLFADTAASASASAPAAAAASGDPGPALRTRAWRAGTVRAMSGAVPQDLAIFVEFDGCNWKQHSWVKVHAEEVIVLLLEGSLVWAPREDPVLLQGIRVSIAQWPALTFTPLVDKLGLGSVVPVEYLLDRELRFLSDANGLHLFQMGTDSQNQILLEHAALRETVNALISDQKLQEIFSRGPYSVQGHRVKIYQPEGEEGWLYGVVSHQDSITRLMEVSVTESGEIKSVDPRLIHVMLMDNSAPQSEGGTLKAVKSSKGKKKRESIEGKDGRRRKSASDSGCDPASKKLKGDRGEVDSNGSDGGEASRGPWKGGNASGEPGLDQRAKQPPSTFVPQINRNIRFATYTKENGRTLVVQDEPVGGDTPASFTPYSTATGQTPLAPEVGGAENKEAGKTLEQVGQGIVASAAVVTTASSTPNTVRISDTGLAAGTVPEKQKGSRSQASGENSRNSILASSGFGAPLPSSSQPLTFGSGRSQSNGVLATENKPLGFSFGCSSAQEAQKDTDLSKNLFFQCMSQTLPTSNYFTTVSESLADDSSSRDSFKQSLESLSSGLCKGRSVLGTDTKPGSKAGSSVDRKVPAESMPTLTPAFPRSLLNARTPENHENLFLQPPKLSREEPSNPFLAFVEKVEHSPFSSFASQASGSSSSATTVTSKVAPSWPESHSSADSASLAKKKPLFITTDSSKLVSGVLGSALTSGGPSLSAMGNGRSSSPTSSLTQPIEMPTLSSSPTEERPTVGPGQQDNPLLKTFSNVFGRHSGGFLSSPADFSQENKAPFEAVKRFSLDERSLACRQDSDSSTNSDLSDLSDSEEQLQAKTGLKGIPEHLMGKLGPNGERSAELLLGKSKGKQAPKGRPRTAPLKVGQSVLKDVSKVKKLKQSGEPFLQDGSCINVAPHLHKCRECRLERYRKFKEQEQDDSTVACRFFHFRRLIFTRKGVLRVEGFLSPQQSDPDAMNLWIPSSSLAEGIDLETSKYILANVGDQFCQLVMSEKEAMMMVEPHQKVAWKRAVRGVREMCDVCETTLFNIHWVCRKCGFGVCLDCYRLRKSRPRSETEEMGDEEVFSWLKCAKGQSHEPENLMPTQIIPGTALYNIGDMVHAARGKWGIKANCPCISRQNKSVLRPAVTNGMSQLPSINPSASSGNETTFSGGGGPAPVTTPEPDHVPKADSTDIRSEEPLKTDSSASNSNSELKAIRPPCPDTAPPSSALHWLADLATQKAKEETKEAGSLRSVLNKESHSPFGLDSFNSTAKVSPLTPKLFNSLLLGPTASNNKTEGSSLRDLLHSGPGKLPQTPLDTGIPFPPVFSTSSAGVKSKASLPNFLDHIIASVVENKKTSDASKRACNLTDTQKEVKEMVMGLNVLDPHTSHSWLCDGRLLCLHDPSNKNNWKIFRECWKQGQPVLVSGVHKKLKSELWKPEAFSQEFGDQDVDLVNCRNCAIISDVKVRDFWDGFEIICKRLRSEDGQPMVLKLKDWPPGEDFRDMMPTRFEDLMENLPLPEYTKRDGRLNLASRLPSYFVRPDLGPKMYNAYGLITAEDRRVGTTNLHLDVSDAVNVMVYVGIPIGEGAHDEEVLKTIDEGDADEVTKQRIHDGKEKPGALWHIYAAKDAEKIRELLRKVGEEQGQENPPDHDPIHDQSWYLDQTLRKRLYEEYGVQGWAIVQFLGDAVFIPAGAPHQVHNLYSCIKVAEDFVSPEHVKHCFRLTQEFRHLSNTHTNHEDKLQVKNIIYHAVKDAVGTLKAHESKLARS

As usually defined, the IC50 is the concentration at which inhibition is half-maximal. With `O=C(O)CCC(O)C(=O)O` (stereo not shown) [R-2HG], the concentration for half-maximal inhibition (IC50) is ~2460 µM.
